# Measured values: patent publication US20210267731A1, “COMPOSITION FOR TREATING AND PREVENTING GINGIVOPERIODONTITIS OR PERI-IMPLANTITIS, AND INTERDENTAL BRUSH COATED WITH SAME” (NIBEC CO., LTD., priority 2018, published 2021)
# Ends that are not written are not given here.
# Experiments:
# [1] = Test of lipopolysaccharide removal effect of nonionic surfactants; conditions: compared with other nonionic surfactants (polyoxyethylene, Tween series, span series)
# Text: Octyl phenol ethoxylate (C14H22O (C2H4O)n) is a nonionic surfactant, has a hydrophilic polyethylene oxide group and a hydrophobic 4-(1,1,3,3-tetramethylbutyl)-phenyl group, and is widely used as a detergent in the biochemical field. In immunostaining, octyl phenol ethoxylate permeabilizes the cell membrane at a concentration of 0.1 to 0.5%, and permeabilizes the cell wall of bacteria at a concentration of 1%. In the present invention, octyl phenol ethoxylate has an effect of removing lipopolysaccharide (LPS). Other nonionic surfactants widely used in this technical field include polyoxyethylene, Tween series, span series and the like.
# [2] = tested on: Prevotella intermedia; assay: Antimicrobial experiment, liquid dilution method, colony count; format: cell-based
# Protocol: In order to determine the effect of the composition containing the antimicrobial peptide, an antimicrobial experiment was conducted according to the liquid dilution method. Prevotella intermedia, which is a bacterium causative of periodontal disease, was cultured in Tryptic soy broth. The above strain was cultured until the absorbance at 620 nm reached 1, and then the cells were collected and used in the experiment. The cells were diluted with PBS, bacteria were plated at 10^5-10^7/mL on a tryptic soy agar (TSA) plate, and incubated at 37° C. for 24 hours. In order to measure the antimicrobial activity of the peptides using a liquid dilution method, 1 ml of distilled water was added to a microtube, 10 µl of diluted bacterial solution was added thereto and 50 μl of the product was plated on a plate medium which was used as a control group.
# After treatment with 50 μg/ml and 100 μg/ml of the peptide of SEQ ID NO: […] and 100 μg/ml of the peptide of SEQ ID NO: 2 at 37° C. for 1 hour, 50 μl of each of the product was plated and the number of colonies that formed was counted. In addition, the antimicrobial activity of the composition of Example 1, a composition containing the composition of Example 1 and the peptide of SEQ ID NO: 1, and a composition containing the composition of Example 1 and the peptide of SEQ ID NO: 2 was measured in the same manner as above.
Substance,lipopolysaccharide removal effect [1],antimicrobial activity ([2]; among peptides of SEQ ID NO: 1 to SEQ ID NO: 4),"antimicrobial activity of peptide (colonies formed) ([2]; peptide at 100 μg/ml, 37° C., 1 hour, FIG. 6)"
octyl phenol ethoxylate,greatest lipopolysaccharide removal effect,–,–
"GKSST RGRKS CRRKK-NH2 (GKSSTRGRKSCRRKK-NH2) [peptide of SEQ ID NO: 2, antimicrobial peptide]",–,best antimicrobial activity,the highest
